The source of these data is patent publication US12582647B2, “Systems and methods for treating an opioid-induced adverse pharmacodynamic response” (Purdue Pharma L.P., priority 2012, dated 2026).

Each structure is given as a SMILES string.

For one data set, the system named is rat GI transit. Description: Charcoal meal GI transit in the rat, single agent. The following applies: for GI transit: % of the small intestine travelled by a charcoal meal: vs vehicle.
Data set [1] relates to acute thermal pain in the rat. In words: Rat hot plate assay (response latency, % MPE). In general terms: Hot-plate and tail-flick tests time the reaction to a heat stimulus.
Experimental: Morphine sulphate (1-10 mg/kg) was dissolved in 0.9% normal saline solution (NSS)(vehicle) and administered SC 1 hour prior to testing against vehicle. Data were analyzed by a two-way ANOVA using a Bonferroni Multiple Comparison Test,***P<0.001.
Morphine sulphate (1-10 mg/kg) was dissolved in 0.9% normal saline solution (NSS)(vehicle) and administered SC 1 hour prior to testing against vehicle. % MPE=Percent Maximum Possible Effect. % MPE=(test latency-baseline)/(cutoff-baseline). Data was analyzed using a Bonferroni Multiple Comparison Test,***P<0.001.
Morphine sulphate (10 mg/kg), the positive control, was dissolved in 0.9% NSS (vehicle). The formulations were administered SC 1 hour prior to testing against vehicle. Data were analyzed by a two-way ANOVA using a Bonferroni multiple comparisons test, where *P<0.05 and ***P <0.001. Data are represented as the means+S.E.M.
Morphine sulphate (10 mg/kg) was dissolved in 0.9% NSS (vehicle). The formulations were administered SC 1 hour prior to testing against vehicle. % MPE=Percent Maximum Possible Effect. % MPE=(test latency-baseline)/(cutoff (30 s)-baseline). Data were analyzed by a two-way ANOVA using Bonferroni Multiple Comparisons test for post-hoc analysis, where *P<0.05 and ***P<0.001. Data are represented as the means+SEM.
The positive control, morphine sulfate in 0.9% NS, was administered SC 1 hour prior to testing. Rats were assessed one day prior (BL) and then 1, 3 and 5 hours post-dosing. Hot Plate was set to 52° C. and cutoff was 30 seconds. Data were analyzed by a two-way ANOVA using a Bonferroni Multiple Comparisons Test, where *P<0.05, ***P<0.001 and ****P<0.0001 versus vehicle. Data are represented as the means+S.E.M from two combined studies.
Oxycodone hydrochloride (0.3-5 mg/kg) was dissolved in 0.9% normal saline solution (NSS)(vehicle) and administered SC 1 hour prior to testing against vehicle. Hot plate was set to 52° C. and cutoff was 30 seconds. Data were analyzed by a two-way ANOVA using a Bonferroni multiple comparisons test, where ****P<0.0001. Data are represented as the means+S.E.M.
Compound was administered SC 1 hour prior to testing. Oxycodone hydrochloride (0.3-5 mg/kg) was dissolved in 0.9% normal saline solution (NSS)(vehicle) and administered SC 1 hour prior to testing against vehicle. Hot plate was set to 52° C. and cutoff was 30 seconds. % MPE=. Percent Maximum Possible Effect. % MPE=(test latency-baseline)/(cutoff (30 s)-baseline). Data were analyzed by a two-way ANOVA using Bonferroni Multiple Comparisons test for post-hoc analysis, ****P<0.000. Data are represented as the means+SEM.
Oxycodone HCl was administered SC 1 hour prior to testing. Thermal latency was assessed the day prior (BL) and then 1, 3 and 5 hours post-oxycodone dosing. The hotplate was set to 52° C. and the cutoff was 30 seconds. Oxycodone was dissolved in 0.9% NS (vehicle). […] Data were analyzed by a two-way ANOVA using the Bonferroni Multiple Comparisons test for post-hoc analysis where, ***P<0.001. Data are represented as the means+SEM.
Oxycodone HCl was administered PO 1 hour prior to testing, while morphine sulfate, the positive control, was administered SC 1 hour prior to testing. Behavior was assessed the day prior (BL) and then 1, 3, 5 and 24 hours post-compound administration. The hot plate was set to 52° C. and the cutoff was 30 seconds. Oxycodone was dissolved in water (vehicle), while morphine sulfate was dissolved in 0.9% NS. Data were analyzed by a two-way ANOVA using a Bonferroni Multiple Comparisons Test, where ****P<0.0001.
Rats were assessed for thermal latency the day prior to dosing, then 1.5, 3 and 5 hours post-morphine administration. Data were analyzed by a two-way ANOVA using the Bonferroni Multiple Comparisons Test, where ****P<0.0001 compared to vehicle+vehicle.
Data set [2] concerns acute thermal pain in the rat. In words: Rat tail flick assay (response latency, % MPE).
Experimental: Morphine sulphate (1-10 mg/kg) was dissolved in 0.9% normal saline solution (NSS)(vehicle) and administered SC 1 hour prior to testing against vehicle. Data were analyzed by a two-way ANOVA using a Bonferroni post-hoc test, *P<0.05, ***P<0.001.
Morphine sulphate (1-10 mg/kg) was dissolved in 0.9% normal saline solution (NSS)(vehicle) and administered SC 1 hour prior to testing against vehicle. % MPE=Percent of Maximum Possible Effect. % MPE=(test latency-baseline)/(cutoff(20 s)-baseline)*100. Data were analyzed by a two-way ANOVA using a Bonferroni post-hoc test, *P<0.05, **P<0.01, ***P<0.001.
Morphine sulphate (10 mg/kg) was dissolved in 0.9% NSS (vehicle). The formulations were administered SC 1 hour prior to testing against vehicle. Data were analyzed by a two-way ANOVA using a Bonferroni multiple comparisons test, *P<0.05, ***P<0.001.
Morphine sulphate (10 mg/kg) was dissolved in 0.9% NSS (vehicle). The formulations were administered SC 1 hour prior to testing against vehicle. % MPE=Percent Maximum Possible Effect. % MPE=(test latency-baseline)/(cutoff(20 s)-baseline)*100. Data were analyzed by a two-way ANOVA using a Bonferroni multiple comparisons test, ***P<0.001.
The positive control, morphine sulfate in 0.9% NS was administered SC 1 hour prior to testing. Rats were assessed the day prior (BL) and then 1, 3 and 5 hours post-dosing. Tail Flick was set to 40 intensity and cutoff 20 seconds. Data were analyzed by a two-way ANOVA using a Bonferroni Multiple Comparisons Test, where *P<0.05,***P<0.001 and ****P<0.0001. Data are represented as the means+S.E.M of two combined studies.
Oxycodone hydrochloride (0.3-5 mg/kg) was dissolved in 0.9% normal saline solution (NSS)(vehicle) and administered SC 1 hour prior to testing against vehicle. Data were analyzed by a two-way ANOVA using a Bonferroni multiple comparisons test, ****P<0.001.
Oxycodone hydrochloride (0.3-5 mg/kg) was dissolved in 0.9% normal saline solution (NSS)(vehicle) and administered SC 1 hour prior to testing against vehicle. % MPE=Percent Maximum Possible Effect. % MPE=(test latency-baseline)/(cutoff(20 s)-baseline)*100. Data were analyzed by a two-way ANOVA using a Bonferroni multiple comparisons test, ****P<0.001.
Oxycodone HCl and vehicle were administered SC 1 hour prior to testing. Rats were assessed one day prior (BL) and then 1, 3 and 5 hours post-oxycodone administration. The tail flick was set to an intensity of 40 and the cutoff was 20 seconds. Oxycodone was dissolved in 0.9% (vehicle). […] Data were analyzed by a two-way ANOVA followed by the Bonferroni Multiple Comparisons Test where, *P<0.05 and ****P<0.001.
Oxycodone HCl was administered PO 1 hour prior to testing, while morphine sulfate, the positive control, was administered SC 1 Hour prior to testing. Behavior was assessed the day prior (BL) to dosing, and then 1, 3, 5 and 24 hours post-compound administration. The tail flick was set to an intensity of 40 and 20 seconds was used as the cutoff. Oxycodone was dissolved in water (vehicle), while morphine was dissolved in 0.9% NS. Data were analyzed by a two-way ANOVA using a Bonferroni Multiple Comparisons Test, where *P<0.05, **P<0.01, ***P<0.001 and ****P<0.0001.
Rats were assessed for tail flick latency the day prior to dosing, then 1.5, 3 and 5 hours post-morphine administration. Data were analyzed by a two-way ANOVA using the Bonferroni Multiple Comparisons Test, where ****P<0.0001 compared to vehicle+vehicle. Data are represented as the means+S.E.M.
Rats were assessed for thermal latency 1.5, 3 and 5 hours post-morphine administration. % MPE=Percent Maximum Possible Effect. % MPE=(test latency-baseline)/(cutoff(20 s)-baseline)*100. Data were analyzed by a two-way ANOVA using a Bonferroni multiple comparisons test for post-hoc analysis where *P<0.05 and ****P<0.001. Data are represented as the means+SEM.
Rats were tested 1 hour after oxycodone injection.
The subject of another data set is rat gastric emptying. Description: Stomach weight after charcoal meal (gastric emptying). Type of data set: in vivo, male Sprague-Dawley rats. Conditions: morphine sulfate 1-10 mg/kg SC 0.5 h before charcoal meal, vs vehicle; FIG. 1B. How it is done: Morphine sulfate (1-10 mg/kg) or 0.9% normal saline (vehicle) was administered SC to the test subjects. 0.5 hour later, a charcoal meal (1 ml/100 grams) was administered PO to the test subjects. One hour after the charcoal meal, the test subjects were euthanized by CO2 and the stomachs were removed and weighed. Data were analyzed using a one-way ANOVA followed by the Dunnett's Multiple Comparisons test where *P<0.05, **P<0.01 and ***P<0.001. […] This effect was dose dependent with a greater magnitude of effect observed with increasing dose.

Experimental for rat GI transit: Rats were dosed with Oxycodone HCl/Oxy or vehicle (water) PO once daily for 5 days (chronic). Additional groups were dosed only once on day 5 (acute). […] One hour after charcoal, all rats were euthanized by CO2 and the GI tract was removed from the stomach to the cecum. The length of the small intestine and the distance (cm) to the leading edge of charcoal was recorded. Data were analyzed using a one-way ANOVA with Bonferonni's Multiple Comparison Test where * P<0.05, ****P<0.0001 vs. vehicle (chronic), ###vs. oxycodone (acute). Data are represented as the means+S.E.M.

For the molecule `CN1CC[C@]23c4c5ccc(O)c4O[C@H]2[C@@H](O)C=C[C@H]3[C@H]1C5.O=S(=O)(O)O` [morphine, morphine sulphate], the “GI transit: % of the small intestine travelled by a charcoal meal” value in the data set with rat GI transit (morphine sulfate 1-10 mg/kg SC 0.5 h before charcoal meal, FIG. 1A) is reported as “decreases gastrointestinal transit”. The “hot plate latency to nocifensive response” value in data set [1] (morphine sulphate 1-10 mg/kg SC 1 h prior to testing, FIG. 2A) was “provides analgesia”. Also, in data set [1] (morphine sulphate 1-10 mg/kg SC 1 h prior to testing, FIG. 2B), the “hot plate % of the maximal possible effect (% MPE)” value is on record as “provides analgesia”. Also, the “tail flick latency to nocifensive response” value in data set [2] (morphine sulphate 1-10 mg/kg SC 1 h prior to testing, FIG. 3A) was “provides analgesia”. Besides, the “tail flick % of the maximal possible effect (% MPE)” value in data set [2] (morphine sulphate 1-10 mg/kg SC 1 h prior to testing, FIG. 3B) is recorded as “provides analgesia”. The “stomach weight (gastric emptying)” value in the data set on rat gastric emptying is “increased stomach weight due to delayed gastric emptying”.
`COc1ccc2c3c1O[C@H]1C(=O)CC[C@@]4(O)[C@@H](C2)N(C)CC[C@]314.Cl` [oxycodone, oxycodone hydrochloride]: the “tolerance to inhibition of GI transit” value in the data set on rat GI transit (oxycodone HCl PO once daily for 5 days (chronic) vs single dose on day 5 (acute), FIG. 7D) is “produces some tolerances to its acute effect on the inhibition of GI transit”. In addition, the “GI transit: % of the small intestine travelled by a charcoal meal” value in the data set on rat GI transit (oxycodone hydrochloride 0.3-5 mg/kg SC 1 h before charcoal meal, FIG. 7A) is “decreases gastrointestinal transit”. Moreover, the rats found dead in data set [1] (oxycodone HCl 10 mg/kg SC, at the 3 hr time point) is given as 4 out of 10; in data set [2] (oxycodone HCl 10 mg/kg SC dosing group, at the 3 hr time point), 4 out of 10. Besides, the “hot plate MED (mitigates acute pain)” value in data set [1] (oxycodone HCl PO, FIG. 8D) was 10 mg/kg; in data set [1] (oxycodone HCl SC, FIG. 8C), 3 mg/kg. Besides, the “hot plate latency to nocifensive response” value in data set [1] (oxycodone hydrochloride 0.3-5 mg/kg SC 1 h prior to testing, FIG. 8A) is “provides analgesia”. Moreover, in data set [1] (oxycodone hydrochloride 0.3-5 mg/kg SC 1 h prior to testing, FIG. 8B), the “hot plate % of the maximal possible effect (% MPE)” value is “provides analgesia”. In addition, the “tail flick MED (mitigates acute pain)” value is given as 10 mg/kg in data set [2] (oxycodone HCl PO, FIG. 9D) and 3 mg/kg in data set [2] (oxycodone HCl SC, FIG. 9C). Besides, the “tail flick latency to nocifensive response” value in data set [2] (oxycodone hydrochloride 0.3-5 mg/kg SC 1 h prior to testing, FIG. 9A) is listed as “provides analgesia”. In data set [2] (oxycodone hydrochloride 0.3-5 mg/kg SC 1 h prior to testing, FIG. 9B), the “tail flick % of the maximal possible effect (% MPE)” value is given as “provides analgesia”.
